{"source": "patent US20250388553A1", "about": "(Incyte Corporation, priority 2018, published 2025)", "key": {"[1]": {"target": "PI3Kγ (p110γ) Recombinant Human Protein (Homo sapiens (Human), UniProt P48736)", "sequence (P48736 whole entry)": "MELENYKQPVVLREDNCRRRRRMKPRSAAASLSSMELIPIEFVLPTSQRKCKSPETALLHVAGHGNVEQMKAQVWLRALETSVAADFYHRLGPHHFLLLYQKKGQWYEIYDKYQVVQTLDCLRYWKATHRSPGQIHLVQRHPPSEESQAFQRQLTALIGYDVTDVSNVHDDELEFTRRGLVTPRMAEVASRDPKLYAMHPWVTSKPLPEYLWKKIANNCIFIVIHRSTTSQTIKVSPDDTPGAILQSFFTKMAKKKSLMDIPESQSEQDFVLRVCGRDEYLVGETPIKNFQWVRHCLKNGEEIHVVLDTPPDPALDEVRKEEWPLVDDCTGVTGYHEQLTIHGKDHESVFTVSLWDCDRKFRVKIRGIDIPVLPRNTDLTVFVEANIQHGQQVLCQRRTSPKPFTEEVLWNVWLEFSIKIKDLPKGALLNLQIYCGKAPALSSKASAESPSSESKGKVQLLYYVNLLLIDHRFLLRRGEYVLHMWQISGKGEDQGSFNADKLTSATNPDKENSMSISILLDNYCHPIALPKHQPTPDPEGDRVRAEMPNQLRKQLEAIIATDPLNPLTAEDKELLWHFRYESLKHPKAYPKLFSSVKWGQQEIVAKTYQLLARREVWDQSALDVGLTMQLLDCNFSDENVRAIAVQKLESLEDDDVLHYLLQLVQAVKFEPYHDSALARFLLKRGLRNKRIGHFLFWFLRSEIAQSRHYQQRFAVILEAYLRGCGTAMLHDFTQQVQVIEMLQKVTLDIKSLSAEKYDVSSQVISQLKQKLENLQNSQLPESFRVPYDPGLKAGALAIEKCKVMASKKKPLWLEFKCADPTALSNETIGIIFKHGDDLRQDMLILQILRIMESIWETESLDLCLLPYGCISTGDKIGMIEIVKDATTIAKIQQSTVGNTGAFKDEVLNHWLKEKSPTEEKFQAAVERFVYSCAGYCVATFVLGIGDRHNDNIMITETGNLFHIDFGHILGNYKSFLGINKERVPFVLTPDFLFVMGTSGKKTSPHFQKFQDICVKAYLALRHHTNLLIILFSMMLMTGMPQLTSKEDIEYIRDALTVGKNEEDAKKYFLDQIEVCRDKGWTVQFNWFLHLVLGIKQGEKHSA", "assay": "PI3K-γ scintillation proximity assay", "type": "biochemical", "settings": "Table A1; scintillation proximity assay, recombinant human p110γ", "source_text": "Example B. PI3K-γ Scintillation Proximity Assay\n(§1) Materials: [γ-^33P]ATP (10 mCi/mL) and Wheat Germ Agglutinin (WGA) YSi SPA Scintillation Beads was purchased from Perkin Elmer (Waltham, MA). Lipid kinase substrate, D-myo-Phosphatidylinositol 4,5-bisphosphate (PtdIns(4,5)P2)D (+)-sn-1,2-di-O-octanoylglyceryl, 3-O-phospho linked (PIP2), CAS 204858-53-7, was purchased from Echelon Biosciences (Salt Lake City, UT). PI3Kγ (p110γ) Recombinant Human Protein was purchased from Life technology (Grand Island, NY). ATP, MgCl2, DTT, EDTA, MOPS and CHAPS were purchased from Sigma Aldrich (St. Louis, MO).\n(§2) The kinase reaction was conducted in polystyrene 384-well Greiner Bio-one white plate from Thermo Fisher Scientific in a final volume of 25 L. Inhibitors were first diluted serially in DMSO and added to the plate wells before the addition of other reaction components. The final concentration of DMSO in the assay was 2%. The PI3Kγ assay was carried out at room temperature in 20 mM MOPS, pH 6.7, 10 mM MgCl2, 5 mM DTT and CHAPS 0.03%. Reactions were initiated by the addition of ATP, the final reaction mixture consisted of 20 µM […], 0.5 μCi [γ-^33P]ATP, 13 nM PI3Kγ. Reactions were incubated for 120 min and terminated by the addition of 40 μL SPA beads suspended in quench buffer: 163 mM potassium phosphate pH 7.8, 20% glycerol, 25 mM EDTA. The final concentration of SPA beads is 1.0 mg/mL. After the plate sealing, plates were shaken overnight at room temperature and centrifuged at 1500 rpm for 10 min, the radioactivity of the product was determined by scintillation counting on Topcount (Perkin-Elmer). IC50 determination was performed by fitting the curve of percent of the solvent control activity versus the log of the inhibitor concentration using the GraphPad Prism 6.0 software.\n(§3) The compounds of the Examples were tested in the assays described in Examples A, B and C and found to have the IC50s are shown in Tables A1, A2, A3 and A4."}, "[2]": {"target": "PI3Kδ (p1106/p85a) Recombinant Human Protein (Homo sapiens (Human), UniProt O00329)", "sequence (O00329 whole entry)": "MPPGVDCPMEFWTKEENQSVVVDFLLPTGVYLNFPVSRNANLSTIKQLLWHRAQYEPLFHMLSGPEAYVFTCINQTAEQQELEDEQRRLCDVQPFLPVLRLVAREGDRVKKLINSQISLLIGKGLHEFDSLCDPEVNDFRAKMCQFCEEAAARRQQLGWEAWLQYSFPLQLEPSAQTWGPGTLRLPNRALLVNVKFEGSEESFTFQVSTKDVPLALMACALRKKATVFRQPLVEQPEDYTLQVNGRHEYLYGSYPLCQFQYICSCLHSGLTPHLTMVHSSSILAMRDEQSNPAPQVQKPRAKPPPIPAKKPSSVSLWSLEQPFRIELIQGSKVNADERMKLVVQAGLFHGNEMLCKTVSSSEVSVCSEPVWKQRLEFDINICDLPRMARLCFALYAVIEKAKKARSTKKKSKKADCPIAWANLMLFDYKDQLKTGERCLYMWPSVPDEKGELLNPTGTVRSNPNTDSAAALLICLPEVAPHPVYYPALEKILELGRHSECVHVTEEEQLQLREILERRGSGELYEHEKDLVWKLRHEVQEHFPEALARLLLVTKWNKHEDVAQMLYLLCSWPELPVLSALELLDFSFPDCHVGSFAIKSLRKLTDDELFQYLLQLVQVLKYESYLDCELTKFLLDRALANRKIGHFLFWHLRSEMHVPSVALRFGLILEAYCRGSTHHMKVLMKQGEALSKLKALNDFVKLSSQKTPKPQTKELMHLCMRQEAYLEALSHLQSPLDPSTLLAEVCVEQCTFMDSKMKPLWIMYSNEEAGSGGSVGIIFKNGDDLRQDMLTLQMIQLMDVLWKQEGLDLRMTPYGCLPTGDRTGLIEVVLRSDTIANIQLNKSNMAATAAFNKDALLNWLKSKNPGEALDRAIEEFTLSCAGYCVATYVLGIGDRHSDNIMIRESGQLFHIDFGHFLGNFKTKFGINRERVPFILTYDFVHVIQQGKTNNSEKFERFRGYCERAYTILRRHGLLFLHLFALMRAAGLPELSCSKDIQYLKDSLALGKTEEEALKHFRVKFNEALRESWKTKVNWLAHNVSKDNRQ", "sequence (P27986 whole entry partner)": "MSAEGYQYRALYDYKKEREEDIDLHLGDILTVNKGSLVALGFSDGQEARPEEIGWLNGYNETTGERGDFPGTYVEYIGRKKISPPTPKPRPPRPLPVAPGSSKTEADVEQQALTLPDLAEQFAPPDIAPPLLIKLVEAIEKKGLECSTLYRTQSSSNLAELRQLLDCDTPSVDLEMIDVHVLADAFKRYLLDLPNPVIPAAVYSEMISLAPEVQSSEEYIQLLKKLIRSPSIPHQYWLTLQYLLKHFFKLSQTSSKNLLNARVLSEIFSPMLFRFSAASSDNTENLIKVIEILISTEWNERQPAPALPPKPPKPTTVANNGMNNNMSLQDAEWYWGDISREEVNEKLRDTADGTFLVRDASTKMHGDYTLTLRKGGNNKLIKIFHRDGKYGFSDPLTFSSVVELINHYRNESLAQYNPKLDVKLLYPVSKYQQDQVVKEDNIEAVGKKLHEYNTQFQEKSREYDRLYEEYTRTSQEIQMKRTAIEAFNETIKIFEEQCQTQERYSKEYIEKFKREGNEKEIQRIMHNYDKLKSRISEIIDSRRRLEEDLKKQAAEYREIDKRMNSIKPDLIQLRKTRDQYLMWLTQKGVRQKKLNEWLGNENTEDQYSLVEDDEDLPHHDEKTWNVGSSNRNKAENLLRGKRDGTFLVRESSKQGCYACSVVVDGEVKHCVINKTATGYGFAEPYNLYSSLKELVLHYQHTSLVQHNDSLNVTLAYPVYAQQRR", "assay": "PI3Kδ scintillation proximity assay", "type": "biochemical", "settings": "Table A1; scintillation proximity assay, recombinant human PI3Kδ", "source_text": "Example C. PI3Kδ Scintillation Proximity Assay\nas §1, with “PI3Kδ (p1106/p85a)” for “PI3Kγ (p110γ)”, “Eurofins (St Charles, MO).” for “Life technology (Grand Island, NY).”\nas §2, with “25 μL.” for “25 L.”, “The PI3Kδ” for “The PI3Kγ”, “[γ-^33P]ATP, 3.4” for “[γ-^33P]ATP, 13”, “nM PI3Kδ.” for “nM PI3Kγ.”, “Topcount (PerkinElmer).” for “Topcount (Perkin-Elmer).”\nas §3"}}, "note": "Where a name gives a salt, the structure may show the parent alone."}
{"smiles": "Cc1ccc(C(O)(C(N)=O)C(F)(F)F)cc1-c1cnc(N)c(C(=O)N[C@@H]2CCCOC2)n1", "note": "(stereo partly drawn) [Example 9, 3-amino-6-(5-(3-amino-1,1,1-trifluoro-2-hydroxy-3-oxopropan-2-yl)-2-methylphenyl)-N-((R)-tetrahydro-2H-pyran-3-yl)pyrazine-2-carboxamide trifluoroacetate]", "values": [{"measurement": "IC50", "setting": "[1]", "result": "< 100", "unit": "nM"}, {"measurement": "IC50", "setting": "[2]", "result": "< 100", "unit": "nM"}]}
{"smiles": "Cc1ccc(C(O)(C(N)=O)C(F)(F)F)cc1-c1cnc(N)c(C(=O)N[C@H]2CCCOC2)n1", "note": "(stereo partly drawn) [Example 10, 3-amino-6-(5-(3-amino-1,1,1-trifluoro-2-hydroxy-3-oxopropan-2-yl)-2-methylphenyl)-N-((S)-tetrahydro-2H-pyran-3-yl)pyrazine-2-carboxamide trifluoroacetate]", "values": [{"measurement": "IC50", "setting": "[1]", "result": "< 100", "unit": "nM"}, {"measurement": "IC50", "setting": "[2]", "result": "< 100", "unit": "nM"}]}
{"smiles": "Cc1ccc(C(O)(C(N)=O)C(F)(F)F)cc1-c1cnc(N)c(C(=O)N[C@H]2CCOC2)n1", "note": "(stereo partly drawn) [Example 11, 3-amino-6-(5-(3-amino-1,1,1-trifluoro-2-hydroxy-3-oxopropan-2-yl)-2-methylphenyl)-N-((S)-tetrahydrofuran-3-yl)pyrazine-2-carboxamide trifluoroacetate]", "values": [{"measurement": "IC50", "setting": "[1]", "result": "< 100", "unit": "nM"}, {"measurement": "IC50", "setting": "[2]", "result": "< 100", "unit": "nM"}]}
{"smiles": "Cc1ccc(C(O)(C(N)=O)C(F)(F)F)cc1-c1cnc(N)c(C(=O)N[C@@H](C)CO)n1", "note": "(stereo partly drawn) [Example 12, 3-amino-6-(5-(3-amino-1,1,1-trifluoro-2-hydroxy-3-oxopropan-2-yl)-2-methylphenyl)-N-((S)-1-hydroxypropan-2-yl)pyrazine-2-carboxamide]", "values": [{"measurement": "IC50", "setting": "[1]", "result": "< 100", "unit": "nM"}, {"measurement": "IC50", "setting": "[2]", "result": "< 100", "unit": "nM"}]}
{"smiles": "Cc1ccc(C(O)(C(N)=O)C(F)(F)F)cc1-c1cnc(N)c(C(=O)NC(C)(C)CO)n1", "note": "(centres unmarked) [Example 13, 3-Amino-6-(5-(3-amino-1,1,1-trifluoro-2-hydroxy-3-oxopropan-2-yl)-2-methylphenyl)-N-(1-hydroxy-2-methylpropan-2-yl)pyrazine-2-carboxamide]", "values": [{"measurement": "IC50", "setting": "[1]", "result": "< 100", "unit": "nM"}, {"measurement": "IC50", "setting": "[2]", "result": "< 100", "unit": "nM"}]}
{"smiles": "Cc1ccc(C(O)(C(N)=O)C(F)(F)F)cc1-c1cnc(N)c(C(=O)NCCC#N)n1", "note": "(centres unmarked) [Example 14, 3-amino-6-(5-(3-amino-1,1,1-trifluoro-2-hydroxy-3-oxopropan-2-yl)-2-methylphenyl)-N-(2-cyanoethyl)pyrazine-2-carboxamide trifluoroacetate]", "values": [{"measurement": "IC50", "setting": "[1]", "result": "< 100", "unit": "nM"}, {"measurement": "IC50", "setting": "[2]", "result": "< 100", "unit": "nM"}]}
{"smiles": "Cc1ccc(C(O)(C(N)=O)C(F)(F)F)cc1-c1cnc(N)c(C(=O)NCC(C)(C)C#N)n1", "note": "(centres unmarked) [Example 15, 3-amino-6-(5-(3-amino-1,1,1-trifluoro-2-hydroxy-3-oxopropan-2-yl)-2-methylphenyl)-N-(2-cyano-2-methylpropyl)pyrazine-2-carboxamide trifluoroacetate]", "values": [{"measurement": "IC50", "setting": "[1]", "result": "< 100", "unit": "nM"}, {"measurement": "IC50", "setting": "[2]", "result": "< 100", "unit": "nM"}]}
{"smiles": "Cc1ccc(C(O)(C(N)=O)C(F)(F)F)cc1-c1cnc(N)c(C(=O)NCC2(C#N)CCC2)n1", "note": "(centres unmarked) [Example 16, 3-amino-6-(5-(3-amino-1,1,1-trifluoro-2-hydroxy-3-oxopropan-2-yl)-2-methylphenyl)-N-((1-cyanocyclobutyl)methyl)pyrazine-2-carboxamide trifluoroacetate]", "values": [{"measurement": "IC50", "setting": "[1]", "result": "< 100", "unit": "nM"}, {"measurement": "IC50", "setting": "[2]", "result": "< 100", "unit": "nM"}]}
{"smiles": "CC[C@@H](CC#N)NC(=O)c1nc(-c2cc(C(O)(C(N)=O)C(F)(F)F)ccc2C)cnc1N", "note": "(stereo partly drawn) [Example 20, 3-amino-6-(5-(3-amino-1,1,1-trifluoro-2-hydroxy-3-oxopropan-2-yl)-2-methylphenyl)-N-((S)-1-cyanobutan-2-yl)pyrazine-2-carboxamide trifluoroacetate]", "values": [{"measurement": "IC50", "setting": "[1]", "result": "< 100", "unit": "nM"}, {"measurement": "IC50", "setting": "[2]", "result": "< 100", "unit": "nM"}]}
{"smiles": "COC(C)(C)CNC(=O)c1nc(-c2cc(C(O)(C(N)=O)C(F)(F)F)ccc2C)cnc1N", "note": "(centres unmarked) [Example 21, 3-amino-6-(5-(3-amino-1,1,1-trifluoro-2-hydroxy-3-oxopropan-2-yl)-2-methylphenyl)-N-(2-methoxy-2-methylpropyl)pyrazine-2-carboxamide trifluoroacetate]", "values": [{"measurement": "IC50", "setting": "[1]", "result": "< 100", "unit": "nM"}, {"measurement": "IC50", "setting": "[2]", "result": "< 100", "unit": "nM"}]}
{"smiles": "Cc1ccc(C(O)(C(N)=O)C(F)(F)F)cc1-c1cnc(N)c(C(=O)NC23CC(C#N)(C2)C3)n1", "note": "(centres unmarked) [Example 23, 3-amino-6-(5-(3-amino-1,1,1-trifluoro-2-hydroxy-3-oxopropan-2-yl)-2-methylphenyl)-N-(3-cyanobicyclo[1.1.1]pentan-1-yl)pyrazine-2-carboxamide trifluoroacetate]", "values": [{"measurement": "IC50", "setting": "[1]", "result": "< 100", "unit": "nM"}, {"measurement": "IC50", "setting": "[2]", "result": "< 100", "unit": "nM"}]}
{"smiles": "Cc1ccc(C(O)(C(N)=O)C(F)(F)F)cc1-c1cnc(N)c(C(=O)NC23CCC(C#N)(C2)C3)n1", "note": "(centres unmarked) [Example 24, 3-amino-6-(5-(3-amino-1,1,1-trifluoro-2-hydroxy-3-oxopropan-2-yl)-2-methylphenyl)-N-(4-cyanobicyclo[2.1.1]hexan-1-yl)pyrazine-2-carboxamide trifluoroacetate]", "values": [{"measurement": "IC50", "setting": "[1]", "result": "< 100", "unit": "nM"}, {"measurement": "IC50", "setting": "[2]", "result": "< 100", "unit": "nM"}]}
{"smiles": "Cc1ccc(C(O)(C(N)=O)C(F)(F)F)cc1-c1cnc(N)c(C(=O)NC23CCC(C#N)(CC2)CC3)n1", "note": "(centres unmarked) [Example 25, 3-amino-6-(5-(3-amino-1,1,1-trifluoro-2-hydroxy-3-oxopropan-2-yl)-2-methylphenyl)-N-(4-cyanobicyclo[2.2.2]octan-1-yl)pyrazine-2-carboxamide trifluoroacetate]", "values": [{"measurement": "IC50", "setting": "[1]", "result": "< 100", "unit": "nM"}, {"measurement": "IC50", "setting": "[2]", "result": "< 100", "unit": "nM"}]}
{"smiles": "Cc1ccc(C(O)(C(N)=O)C(F)(F)F)cc1-c1cnc(N)c(C(=O)N2CCC2(C)C)n1", "note": "(centres unmarked) [Example 27, 2-(3-(5-amino-6-(2,2-dimethylazetidine-1-carbonyl)pyrazin-2-yl)-4-methylphenyl)-3,3,3-trifluoro-2-hydroxypropanamide]", "values": [{"measurement": "IC50", "setting": "[1]", "result": "< 100", "unit": "nM"}, {"measurement": "IC50", "setting": "[2]", "result": "< 100", "unit": "nM"}]}
{"smiles": "Cc1ccc(C(O)(C(N)=O)C(F)(F)F)cc1-c1cnc(N)c(C(=O)N2CCc3cccnc32)n1", "note": "(centres unmarked) [Example 28, 2-(3-(5-amino-6-(2,3-dihydro-1H-pyrrolo[2,3-b]pyridine-1-carbonyl)pyrazin-2-yl)-4-methylphenyl)-3,3,3-trifluoro-2-hydroxypropanamide]", "values": [{"measurement": "IC50", "setting": "[1]", "result": "< 100", "unit": "nM"}, {"measurement": "IC50", "setting": "[2]", "result": "100 to 500", "unit": "nM"}]}
{"smiles": "CCNC(=O)c1nc(-c2cc(C(O)(C(N)=O)C(F)F)ccc2C)cnc1N", "note": "(centres unmarked) [Example 32, 3-amino-6-(5-(1-amino-3,3-difluoro-2-hydroxy-1-oxopropan-2-yl)-2-methylphenyl)-N-ethylpyrazine-2-carboxamide]", "values": [{"measurement": "IC50", "setting": "[1]", "result": "< 100", "unit": "nM"}, {"measurement": "IC50", "setting": "[2]", "result": "< 100", "unit": "nM"}]}
{"smiles": "Cc1ccc(C(O)(C(N)=O)C(F)F)cc1-c1cnc(N)c(C(=O)NCC2(C#N)CC2)n1", "note": "(centres unmarked) [Example 33, 3-amino-6-(5-(1-amino-3,3-difluoro-2-hydroxy-1-oxopropan-2-yl)-2-methylphenyl)-N-((1-cyanocyclopropyl)methyl)pyrazine-2-carboxamide]", "values": [{"measurement": "IC50", "setting": "[1]", "result": "< 100", "unit": "nM"}, {"measurement": "IC50", "setting": "[2]", "result": "< 100", "unit": "nM"}]}
{"smiles": "Cc1ccc(C(O)(C(N)=O)C(F)F)cc1-c1cnc(N)c(C(=O)NC2CCC(F)(F)CC2)n1", "note": "(centres unmarked) [Example 34, 3-amino-6-(5-(1-amino-3,3-difluoro-2-hydroxy-1-oxopropan-2-yl)-2-methylphenyl)-N-(4,4-difluorocyclohexyl)pyrazine-2-carboxamide]", "values": [{"measurement": "IC50", "setting": "[1]", "result": "< 100", "unit": "nM"}, {"measurement": "IC50", "setting": "[2]", "result": "< 100", "unit": "nM"}]}
{"smiles": "Cc1ccc(C(O)(C(N)=O)C(F)F)cc1-c1cnc(N)c(C(=O)NC(C)(C)CO)n1", "note": "(centres unmarked) [Example 35, 3-amino-6-(5-(1-amino-3,3-difluoro-2-hydroxy-1-oxopropan-2-yl)-2-methylphenyl)-N-(1-hydroxy-2-methylpropan-2-yl)pyrazine-2-carboxamide]", "values": [{"measurement": "IC50", "setting": "[1]", "result": "< 100", "unit": "nM"}, {"measurement": "IC50", "setting": "[2]", "result": "< 100", "unit": "nM"}]}
